The series concerns CCRIS mutagenicity, Ames/micronucleus/aberration tests. Put plainly: CCRIS mutagenicity studies.
Setting [1] is: Test System: AMES SALMONELLA TYPHIMURIUM, Strain/Indicator: TA98, Metabolic Activation: NONE, Method: PREINCUBATION
Where [2] appears, read: Test System: AMES SALMONELLA TYPHIMURIUM, Strain/Indicator: TA100, Metabolic Activation: NONE, Method: PREINCUBATION

Calls of active or inactive are those of the source. No rule for the calls is given here.

With `Sc1ccccc1`, the mutagenic call under setting [1] was “inactive; negative”; the mutagenic call (Test System: AMES SALMONELLA TYPHIMURIUM, Strain/Indicator: TA98, Metabolic Activation: RAT LIVER S-9, PHENOBARBITAL AND BETA-NAPHTHOFLAVONE, Method: PREINCUBATION) is “inactive; negative”; the mutagenic call under setting [2] was “inactive; negative”; the mutagenic call (Test System: AMES SALMONELLA TYPHIMURIUM, Strain/Indicator: TA100, Metabolic Activation: RAT LIVER S-9, PHENOBARBITAL AND BETA-NAPHTHOFLAVONE, Method: PREINCUBATION) was “inactive; negative”; the mutagenic call (Test System: AMES SALMONELLA TYPHIMURIUM, Strain/Indicator: TA1535, Metabolic Activation: NONE, Method: PREINCUBATION) is “inactive; negative”; the mutagenic call (Test System: AMES SALMONELLA TYPHIMURIUM, Strain/Indicator: TA1535, Metabolic Activation: RAT LIVER S-9, PHENOBARBITAL AND BETA-NAPHTHOFLAVONE, Method: PREINCUBATION) was “inactive; negative”. For the same compound, the mutagenic call (Test System: AMES SALMONELLA TYPHIMURIUM, Strain/Indicator: TA1537, Metabolic Activation: NONE, Method: PREINCUBATION) was “inactive; negative”; the mutagenic call (Test System: AMES SALMONELLA TYPHIMURIUM, Strain/Indicator: TA1537, Metabolic Activation: RAT LIVER S-9, PHENOBARBITAL AND BETA-NAPHTHOFLAVONE, Method: PREINCUBATION) was “inactive; negative”; the mutagenic call (Test System: AMES SALMONELLA TYPHIMURIUM, Strain/Indicator: TA1538, Metabolic Activation: NONE, Method: PREINCUBATION) was “inactive; negative”; the mutagenic call (Test System: AMES SALMONELLA TYPHIMURIUM, Strain/Indicator: TA1538, Metabolic Activation: RAT LIVER S-9, PHENOBARBITAL AND BETA-NAPHTHOFLAVONE, Method: PREINCUBATION) is “inactive; negative”; the mutagenic call (Test System: E.COLI, Strain/Indicator: WP2UVRA, Metabolic Activation: NONE, Method: PREINCUBATION) is “active; positive”; the mutagenic call (Test System: E.COLI, Strain/Indicator: WP2UVRA, Metabolic Activation: RAT LIVER S-9, PHENOBARBITAL AND BETA-NAPHTHOFLAVONE, Method: PREINCUBATION) is “inactive; negative”.

Turning to `O=[N+]([O-])N(c1ccccn1)S(=O)(=O)c1ccccc1`, the mutagenic call is, setting by setting: under setting [1], “inactive; negative”; (Test System: AMES SALMONELLA TYPHIMURIUM, Strain/Indicator: TA98, Metabolic Activation: RAT, LIVER, S-9, AROCLOR 1254, Method: PREINCUBATION) “inactive; negative”; under setting [2], “inactive; negative”; (Test System: AMES SALMONELLA TYPHIMURIUM, Strain/Indicator: TA100, Metabolic Activation: RAT, LIVER, S-9, AROCLOR 1254, Method: PREINCUBATION) “inactive; negative”.

Turning to `CCOC1=CC(=O)C(NC(C)=O)=CC1=O`, the mutagenic call by setting is: (Test System: AMES SALMONELLA TYPHIMURIUM, Strain/Indicator: TA98, Metabolic Activation: NONE, Method: STANDARD PLATE) “active; positive”; (Test System: AMES SALMONELLA TYPHIMURIUM, Strain/Indicator: TA100, Metabolic Activation: NONE, Method: STANDARD PLATE) “active; positive”.

Regarding `O=S(=O)(O)c1ccc(N=Nc2cc(S(=O)(=O)O)c3ccccc3c2O)c2ccccc12`, the mutagenic call by setting is: (End Point: IN VITRO CHROMOSOMAL ABERRATIONS, Test System: CHO CELLS, Metabolic Activation: NONE) “inactive; negative”; (End Point: IN VITRO CHROMOSOMAL ABERRATIONS, Test System: CHO CELLS, Metabolic Activation: RAT, LIVER, S-9, AROCLOR 1254) “inactive; negative”; (Test System: Mouse lymphoma, Strain/Indicator: L5178Y (tk+/tk-), Metabolic Activation: None, Method: Suspension/plate) “inactive; negative”; (Test System: Mouse lymphoma, Strain/Indicator: L5178Y (tk+/tk-), Metabolic Activation: Rat, Liver, S-9, Aroclor 1254, Method: Suspension/plate) “inactive; negative”.
